Legend:
[1] = test system: SERCA; test: Ca-ATPase assay, microsomal preparations from HEK 293 cells; format: biochemical, human
Protocol: A Ca-ATPase assay was performed using microsomal preparations from HEK 293 cells at a series of calcium concentrations corresponding to the physiological range, relative to controls. The ATP hydrolysis rate was measured over a range of calcium concentrations in the presence of test compounds using an NADH-linked, enzyme-coupled ATPase assay adapted for 96-well microplates, with Vmax determined by fitting the ATPase calcium-dependence to the Hill function. […] CaCl2 was added to set free [Ca^2+] to the specific values.

[2] = test system: HeLa cells overexpressing BI-1; test: Effect on [Ca2+]ER, ER cameleon in HeLa cells overexpressing BI-1; format: cell-based; settings: HeLa cells overexpressing BI-1, treated 24 hrs
Protocol: To directly measure ER Ca^2+ content, a genetically encoded Ca^2+ indicator, ER cameleon, was used. HeLa cells were transfected with ER-cameleon encoding plasmid for 2 days before analysis. Cells were treated with a test compound for 24 hrs and imaged in Ca^2+-free HBSS upon addition of thapsigargin to deplete ER stores. Emission ratio imaging of the ER cameleon was accomplished using a 430/24 excitation filter, 450-nm dichroic mirror, and two emission filters (475/40 for CFP and 535/25 for YFP). The fluorescence ratio of YFP/CFP is a measure of relative ER Ca^2+ levels.

[3] = test system: ob/ob mice; test: Effect of a SERCA agonist on the level of blood glucose; format: in vivo, mouse; settings: 10 or 50 mg/kg i.p. once a day for 5 days
Protocol: Fasting glucose was measured at baseline and 10 hours after the administration of the test compound. Glucose levels were measured in blood samples drawn from the tail vein using the OneTouch Ultra 2 Meter (LifeScan, Inc.).

[4] = test system: G6PAse, PEPCK, SCD1, DGAT2, FASn, SREBP1c, PPARα, PGC1α; test: Liver expression of gluconeogenesis and lipogenesis genes (real-time PCR); format: in vivo, mouse; settings: liver of ob/ob mice
Protocol: The expression of key genes involved in gluconeogenesis and lipogenesis was measured. RNA was isolated from liver samples of the ob/ob mice and mRNA expression of the indicated genes was quantified by Real-time PCR using iTaq Fast SYBR Green Supermix with ROX (Bio-Rad) in a 7500 Real-Time PCR systems (Applied Biosystems) using mouse specific primers. Gene expression is normalized to 18s. RNA was isolated using Trizol (Invitrogen). cDNA was generated using High Capacity cDNA Reverse Transcription kit (Applied Biosystems). Real-time PCR was performed with iTaq Fast SYBR Green Supermix with ROX (Bio-Rad) in 7500 Real-Time PCR systems (Applied Biosystems) using mouse specific primers. Gene expression was normalized to 18s. Isolated liver tissue was homogenized in RIPA buffer containing protease inhibitors and phosphatase inhibitors (Roche). Protein samples were matched for their protein concentrations and 30 micrograms of each sample were applied to SDS-PASE and transferred onto nitrocellulose membrane. Membranes were then incubated with the corresponding phosphor or total primary antibodies specific for the desired proteins followed by incubation with appropriate secondary antibodies conjugated to horseradish peroxidase (Pierce) and signal intensities were visualized by Chemiluminescence (Pierce). Films from at least four independent experiments were scanned and densities of the immunoreactive bands were evaluated using NIH Image software. GAPDH (Santa Cruz Biotechnology) was used as a loading control.

[5] = test system: PS1/APP mice; test: Alzheimer's disease model, 2-photon Ca2+ imaging of CA1 pyramidal neurons in brain slices; format: in vivo, mouse; settings: 10 mg/kg IP for 4 weeks, vs saline
Text: PS1/APP mice (PS1M146V and APPSWE) (Howlett et al., Brain Res. 2004, 1017, 130-136) were used. Age-matched NTg controls were on the same background strain (C57bl6/J9).
Mice were deeply anesthetized with halothane and rapidly decapitated. The brains were extracted rapidly and 300 or 400 μm-thick transverse hippocampal slices were cut with a vibrating microtome into ice-cold oxygenated artificial cerebrospinal fluid (aCSF) with the following composition (in mM): 125 NaCl, 2.5 KCl, 1.25 KH2PO4, 1.2 MgSO4, 2 CaCl2, 10 dextrose, and 25 NaHCO3.
Ca^2+ imaging within individual neurons was performed in brain slice preparations using a custom-made video-rate multiphoton-imaging system based on an upright Olympus BX51 microscope frame. […] Emitted fluorescence light was detected by a wide-field photomultiplier (Electron Tubes) to derive a video signal that was captured and analyzed by Video Savant 5.0 software (IO Industries). […] For clarity, results are expressed as inverse ratios so that increases in [Ca^2+] correspond to increasing ratios. The % change is calculated as […], where F is the average resting fluorescence at baseline and ΔF is the decrease of fluorescence reflecting Ca release. Differences between drug- and saline-treated groups were assessed using two-way ANOVA and Scheffe post hoc analysis for significance (p<0.05). […]

[6] = Pharmacokinetics of compound A12 in Sprague Dawley rats; format: in vivo, rat; settings: oral, 2 mg/kg P.O.
Protocol: Pharmacokinetics of a test compound, compound A12, was assessed in Sprague Dawley rats. The compound was formulated at 1 mg/mL in DMSO/Tween 80/water (10/10/80, vol/vol/vol) and dosed at 1 mg/kg intravenous (i.v.) or 2 mg/kg by oral gavage (P.O.) in triplicate. Blood was drawn at 5 min, 15 min, 30 min, 1 hr, 2 hrs, 4 hrs, 6 hrs, and 8 hrs into EDTA containing tubes and plasma was harvested by centrifugation. Plasma (25 μL) was treated with acetonitrile (125 μL) containing an internal standard. The sample was then centrifuged for 5 min at 4,000 rpm in a tabletop centrifuge and the filtrate was collected. The filtrate was injected onto a Thermo Betasil C18 HPLC column 5μ (50×2.1 mm). Mobile Phase A was water with 0.1% formic acid. Mobile Phase B was acetonitrile with 0.1% formic acid. Separation was achieved using a gradient of 90% A/10% B to 5% A/95% B over 7 min. An API Sciex 4000 equipped with a turbo ion spray source was used for all analytical measurements. A positive ion MRM method was developed. Peak areas of the product ion were measured against the peak areas of the internal standard. Data was fit using WinNonLin (Pharsight Corporation, Mountain View, Calif.).

Cc1ccc2cccc(NC(=O)c3ccc(OC(C)C)cc3)c2n1 [Compound A12, 4-Isopropoxy-N-(2-methylquinolin-8-yl)benzamide]
Vmax of a SERCA [1]: significantly increased
[Ca2+]ER [2]: significantly restored
fasting blood glucose [3]: significantly lowered blood glucose as early as day 2
maintenance of lower glucose level after last injection [3]: maintained a lower glucose level, to a level identical to lean mice, for over a week after the last injection
expression of PPARα and its target PGC1α [4]: increased
mRNA expression of G6PAse and PEPCK [4]: significantly reduced
mRNA expression of lipogenic genes (SCD1, DGAT2, FASn, SREBP1c) [4]: significantly reduced
ER Ca2+ signaling (RyR-Ca2+ response to caffeine) [5]: restores ER Ca^2+ signaling
T112 [6]: 1.17 h

— US20170281611A1, “QUINOLINES AND THEIR USE FOR TREATING ENDOPLASMIC RETICULUM STRESS-CAUSED DISEASES” (EIGER BIOPHARMACEUTICALS, INC., priority 2014, published 2017)
